Data from US9611269B2, “Azetidinyl phenyl, pyridyl or pyrazinyl carboxamide derivatives as JAK inhibitors” (Incyte Corporation, priority 2011, dated 2017).

Experiments:
Format in all cases: biochemical
[1] = target: human JAK1 (a.a. 837-1142) catalytic domain (Homo sapiens, UniProt P23458); test: In vitro JAK kinase assay (HTRF, 1 mM ATP), JAK1; details: at 1 mM ATP;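 note: kinase activity followed as phosphorylation of a biotin-tagged peptide, detected by HTRF with Eu-labelled anti-phosphotyrosine antibody and SA-APC, after 1 h reaction at room temperature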
Chain of human JAK1 (a.a. 837-1142) catalytic domain (Homo sapiens, UniProt P23458) (P23458 whole entry, looked up, the tested form may be a part): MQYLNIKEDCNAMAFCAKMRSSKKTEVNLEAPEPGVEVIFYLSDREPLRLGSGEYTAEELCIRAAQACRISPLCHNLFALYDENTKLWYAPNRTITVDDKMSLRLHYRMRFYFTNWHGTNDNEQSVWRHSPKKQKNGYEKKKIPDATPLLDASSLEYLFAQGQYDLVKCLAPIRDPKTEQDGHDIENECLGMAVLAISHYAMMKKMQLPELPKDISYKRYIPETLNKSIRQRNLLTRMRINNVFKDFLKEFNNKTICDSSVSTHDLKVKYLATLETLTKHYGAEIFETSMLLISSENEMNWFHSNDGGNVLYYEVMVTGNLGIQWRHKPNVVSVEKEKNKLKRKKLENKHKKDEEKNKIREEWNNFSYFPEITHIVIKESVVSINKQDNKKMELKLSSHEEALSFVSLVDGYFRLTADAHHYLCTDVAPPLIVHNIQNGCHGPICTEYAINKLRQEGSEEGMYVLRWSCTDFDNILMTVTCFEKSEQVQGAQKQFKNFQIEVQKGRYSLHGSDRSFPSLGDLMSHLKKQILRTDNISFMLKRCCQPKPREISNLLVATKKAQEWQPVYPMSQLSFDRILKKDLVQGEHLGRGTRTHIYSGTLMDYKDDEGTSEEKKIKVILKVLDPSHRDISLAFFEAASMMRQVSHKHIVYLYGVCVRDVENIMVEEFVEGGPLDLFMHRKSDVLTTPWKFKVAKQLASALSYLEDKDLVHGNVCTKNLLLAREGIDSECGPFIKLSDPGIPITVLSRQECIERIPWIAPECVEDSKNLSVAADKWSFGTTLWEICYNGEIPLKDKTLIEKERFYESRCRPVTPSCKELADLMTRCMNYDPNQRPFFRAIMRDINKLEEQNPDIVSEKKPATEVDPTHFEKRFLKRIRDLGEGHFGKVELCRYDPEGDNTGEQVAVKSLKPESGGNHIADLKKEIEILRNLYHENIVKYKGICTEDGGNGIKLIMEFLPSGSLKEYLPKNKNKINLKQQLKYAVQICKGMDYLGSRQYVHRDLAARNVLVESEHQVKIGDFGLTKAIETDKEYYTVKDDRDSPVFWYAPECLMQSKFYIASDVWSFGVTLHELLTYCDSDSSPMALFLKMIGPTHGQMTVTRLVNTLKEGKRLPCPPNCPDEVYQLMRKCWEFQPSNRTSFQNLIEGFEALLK
Experimental: (§1) The catalytic activity of JAK1, JAK2 or JAK3 was assayed by measuring the phosphorylation of a biotinylated peptide. The phosphorylated peptide was detected by homogenous time resolved fluorescence (HTRF). […] Reactions were carried out at room temperature for 1 hour and then stopped with 20 μL 45 mM EDTA, 300 nM SA-APC, 6 nM Eu-Py20 in assay buffer (Perkin Elmer, Boston, Mass.). Binding to the Europium labeled antibody took place for 40 minutes and HTRF signal was measured on a Fusion plate reader (Perkin Elmer, Boston, Mass.).

[2] = test system: human JAK1 (a.a. 837-1142) catalytic domain; test: In vitro JAK kinase assay (HTRF, 1 mM ATP), JAK1; details: ratio of JAK2 IC50 to JAK1 IC50 at 1 mM ATP;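 note: kinase activity followed as phosphorylation of a biotin-tagged peptide, detected by HTRF with Eu-labelled anti-phosphotyrosine antibody and SA-APC, after 1 h reaction at room temperature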
Experimental: as §1

[3] = target: human JAK2 (a.a. 828-1132) catalytic domain (Homo sapiens (Human), UniProt O60674); test: In vitro JAK kinase assay (HTRF, 1 mM ATP), JAK2; details: at 1 mM ATP
Chain of human JAK2 (a.a. 828-1132) catalytic domain (O60674 828-1132): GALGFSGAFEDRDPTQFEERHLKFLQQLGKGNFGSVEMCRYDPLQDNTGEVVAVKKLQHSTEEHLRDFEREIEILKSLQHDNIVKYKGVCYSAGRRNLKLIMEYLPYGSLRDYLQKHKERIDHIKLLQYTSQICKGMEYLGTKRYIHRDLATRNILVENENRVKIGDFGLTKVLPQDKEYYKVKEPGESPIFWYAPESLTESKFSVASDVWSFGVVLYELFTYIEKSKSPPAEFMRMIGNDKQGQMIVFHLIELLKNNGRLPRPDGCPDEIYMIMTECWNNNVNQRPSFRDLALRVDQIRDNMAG
Experimental: as §1

Structure (SMILES)	IC50 [1]	JAK2/JAK1 [2]	IC50 [3]
CC(C)NC(=O)c1cc(Cl)c(N2CC(CC#N)(n3cc(-c4ncnc5[nH]ccc45)cn3)C2)cc1F [Example 8, 5-Chloro-4-{3-(cyanomethyl)-3-[4-(7H-pyrrolo[2,3-d]pyrimidin-4-yl)-1H-pyrazol-1-yl]azetidin-1-yl}-2-fluoro-N-isopropylbenzamide]	< 10 nM	A (A means greater than or equal to 10)	≤ 10 nM
CC(C)NC(=O)c1ccc(N2CC(CC#N)(n3cc(-c4ncnc5[nH]ccc45)cn3)C2)cc1 [Example 13, 4-{3-(Cyanomethyl)-3-[4-(7H-pyrrolo[2,3-d]pyrimidin-4-yl)-1H-pyrazol-1-yl]azetidin-1-yl}-N-isopropylbenzamide]	< 10 nM	A (A means greater than or equal to 10)	10 to 40 nM
CC(NC(=O)c1ccc(N2CC(CC#N)(n3cc(-c4ncnc5[nH]ccc45)cn3)C2)cc1)C1CCN(C)CC1 (stereo not drawn) [Example 20, 4-{3-(Cyanomethyl)-3-[4-(7H-pyrrolo[2,3-d]pyrimidin-4-yl)-1H-pyrazol-1-yl]azetidin-1-yl}-N-[1-(1-methylpiperidin-4-yl)ethyl]benzamide]	< 10 nM	A (A means greater than or equal to 10)	10 to 40 nM
N#CCC1(n2cc(-c3ncnc4[nH]ccc34)cn2)CN(c2ccc(C(=O)NC3CC(F)(F)C3)nc2)C1 [Example 12, 5-{3-(Cyanomethyl)-3-[4-(7H-pyrrolo[2,3-d]pyrimidin-4-yl)-1H-pyrazol-1-yl]azetidin-1-yl}-N-(3,3-difluorocyclobutyl)pyridine-2-carboxamide]	< 10 nM	A (A means greater than or equal to 10)	≤ 10 nM
C[C@H](NC(=O)c1ccc(N2CC(CC#N)(n3cc(-c4ncnc5[nH]ccc45)cn3)C2)c(F)c1)C(F)(F)F [Example 10, 4-{3-(Cyanomethyl)-3-[4-(7H-pyrrolo[2,3-d]pyrimidin-4-yl)-1H-pyrazol-1-yl]azetidin-1-yl}-3-fluoro-N-[(1S)-2,2,2-trifluoro-1-methylethyl]benzamide]	< 10 nM	A (A means greater than or equal to 10)	≤ 10 nM
CC(C)NC(=O)c1ccc(N2CC(CC#N)(n3cc(-c4ncnc5[nH]ccc45)cn3)C2)cn1 [Example 9, 5-{3-(Cyanomethyl)-3-[4-(7H-pyrrolo[2,3-d]pyrimidin-4-yl)-1H-pyrazol-1-yl]azetidin-1-yl}-N-isopropylpyridine-2-carboxamide]	< 10 nM	A (A means greater than or equal to 10)	≤ 10 nM
CC(C)NC(=O)c1ccc(N2CC(CC#N)(n3cc(-c4ccnc5[nH]ccc45)cn3)C2)cc1 [Example 1, 4-{3-(Cyanomethyl)-3-[4-(1H-pyrrolo[2,3-b]pyridin-4-yl)-1H-pyrazol-1-yl]azetidin-1-yl}-N-isopropylbenzamide]	< 10 nM	A (A means greater than or equal to 10)	10 to 40 nM
CC[C@@H](C)NC(=O)c1ccc(N2CC(CC#N)(n3cc(-c4ncnc5[nH]ccc45)cn3)C2)cc1 [Example 25, 4-{3-(Cyanomethyl)-3-[4-(7H-pyrrolo[2,3-d]pyrimidin-4-yl)-1H-pyrazol-1-yl]azetidin-1-yl}-N-[(1R)-1-methylpropyl]benzamide bis(trifluoroacetate)]	< 10 nM	A (A means greater than or equal to 10)	≤ 10 nM
C[C@H](NC(=O)c1ccc(N2CC(CC#N)(n3cc(-c4ncnc5[nH]ccc45)cn3)C2)cc1F)C1CCCCC1 [Example 15, 4-{3-(Cyanomethyl)-3-[4-(7H-pyrrolo[2,3-d]pyrimidin-4-yl)-1H-pyrazol-1-yl]azetidin-1-yl}-N-[(1S)-1-cyclohexylethyl]-2-fluorobenzamide]	< 10 nM	A (A means greater than or equal to 10)	10 to 40 nM
CC(C)NC(=O)c1ccc(N2CC(CC#N)(n3cc(-c4ncnc5[nH]ccc45)cn3)C2)c(F)c1 [Example 3, 4-{3-(Cyanomethyl)-3-[4-(7H-pyrrolo[2,3-d]pyrimidin-4-yl)-1H-pyrazol-1-yl]azetidin-1-yl}-3-fluoro-N-isopropylbenzamide]	< 10 nM	A (A means greater than or equal to 10)	≤ 10 nM
C[C@H](NC(=O)c1ccc(N2CC(CC#N)(n3cc(-c4ccnc5[nH]ccc45)cn3)C2)cn1)C1CC1 [Example 2, 5-{3-(Cyanomethyl)-3-[4-(1H-pyrrolo[2,3-b]pyridin-4-yl)-1H-pyrazol-1-yl]azetidin-1-yl}-N-[(1S)-1-cyclopropylethyl]pyridine-2-carboxamide]	< 10 nM	A (A means greater than or equal to 10)	≤ 10 nM

The remaining lines, values ahead:

IC50 [1]	JAK2/JAK1 [2]	IC50 [3]	Structure (SMILES)
< 10 nM	A (A means greater than or equal to 10)	≤ 10 nM	CCNC(=O)c1ccc(N2CC(CC#N)(n3cc(-c4ncnc5[nH]ccc45)cn3)C2)cn1 [Example 24, 5-{3-(Cyanomethyl)-3-[4-(7H-pyrrolo[2,3-d]pyrimidin-4-yl)-1H-pyrazol-1-yl]azetidin-1-yl}-N-ethylpyridine-2-carboxamide]
< 10 nM	A (A means greater than or equal to 10)	10 to 40 nM	C[C@H](NC(=O)c1cnc(N2CC(CC#N)(n3cc(-c4ccnc5[nH]ccc45)cn3)C2)cn1)C(F)(F)F [Example 35, 5-{3-(Cyanomethyl)-3-[4-(1H-pyrrolo[2,3-b]pyridin-4-yl)-1H-pyrazol-1-yl]azetidin-1-yl}-N-[(1S)-2,2,2-trifluoro-1-methylethyl]pyrazine-2-carboxamide]
< 10 nM	A (A means greater than or equal to 10)	≤ 10 nM	C[C@@H](NC(=O)c1cc(F)c(N2CC(CC#N)(n3cc(-c4ncnc5[nH]ccc45)cn3)C2)cc1F)C(F)(F)F [Example 29, 4-{3-(Cyanomethyl)-3-[4-(7H-pyrrolo[2,3-d]pyrimidin-4-yl)-1H-pyrazol-1-yl]azetidin-1-yl}-2,5-difluoro-N-[(1R)-2,2,2-trifluoro-1-methylethyl]benzamide]
< 10 nM	A (A means greater than or equal to 10)	10 to 40 nM	C[C@@H](NC(=O)c1cnc(N2CC(CC#N)(n3cc(-c4ncnc5[nH]ccc45)cn3)C2)cn1)C(F)(F)F [Example 30, 5-{3-(Cyanomethyl)-3-[4-(7H-pyrrolo[2,3-d]pyrimidin-4-yl)-1H-pyrazol-1-yl]azetidin-1-yl}-N-[(1R)-2,2,2-trifluoro-1-methylethyl]pyrazine-2-carboxamide]
< 10 nM	A (A means greater than or equal to 10)	10 to 40 nM	C[C@H](NC(=O)c1ccc(N2CC(CC#N)(n3cc(-c4ncnc5[nH]ccc45)cn3)C2)cc1F)C(F)(F)F [Example 22, 4-{3-(Cyanomethyl)-3-[4-(7H-pyrrolo[2,3-d]pyrimidin-4-yl)-1H-pyrazol-1-yl]azetidin-1-yl}-2-fluoro-N-[(1S)-2,2,2-trifluoro-1-methylethyl]benzamide]
< 10 nM	A (A means greater than or equal to 10)	10 to 40 nM	N#CCC1(n2cc(-c3ccnc4[nH]ccc34)cn2)CN(c2cnc(C(=O)N[C@@H](C3CC3)C(F)(F)F)cn2)C1 [Example 42, 5-{3-(Cyanomethyl)-3-[4-(1H-pyrrolo[2,3-b]pyridin-4-yl)-1H-pyrazol-1-yl]azetidin-1-yl}-N-[(1S)-1-cyclopropyl-2,2,2-trifluoroethyl]pyrazine-2-carboxamide]
< 10 nM	A (A means greater than or equal to 10)	≤ 10 nM	N#CCC1(n2cc(-c3ncnc4[nH]ccc34)cn2)CN(c2cnc(C(=O)N[C@@H](C3CC3)C(F)(F)F)cn2)C1 [Example 32, 5-{3-(Cyanomethyl)-3-[4-(7H-pyrrolo[2,3-d]pyrimidin-4-yl)-1H-pyrazol-1-yl]azetidin-1-yl}-N-[(1S)-1-cyclopropyl-2,2,2-trifluoroethyl]pyrazine-2-carboxamide]
< 10 nM	A (A means greater than or equal to 10)	10 to 40 nM	N#CCC1(n2cc(-c3ccnc4[nH]ccc34)cn2)CN(c2ccc(C(=O)NC3(C(F)(F)F)CC3)nc2)C1 [Example 40, 5-{3-(Cyanomethyl)-3-[4-(1H-pyrrolo[2,3-b]pyridin-4-yl)-1H-pyrazol-1-yl]azetidin-1-yl}-N-[1-(trifluoromethyl)cyclopropyl]pyridine-2-carboxamide]
< 10 nM	A (A means greater than or equal to 10)	≤ 10 nM	N#CCC1(n2cc(-c3ncnc4[nH]ccc34)cn2)CN(c2cc(F)c(C(=O)NCC(F)F)cc2F)C1 [Example 37, 4-{3-(Cyanomethyl)-3-[4-(7H-pyrrolo[2,3-d]pyrimidin-4-yl)-1H-pyrazol-1-yl]azetidin-1-yl}-N-(2,2-difluoroethyl)-2,5-difluorobenzamide]
< 10 nM	A (A means greater than or equal to 10)	≤ 10 nM	C[C@H](NC(=O)c1cnc(N2CC(CC#N)(n3cc(-c4ncnc5[nH]ccc45)cn3)C2)cn1)C(F)(F)F [Example 31, 5-{3-(Cyanomethyl)-3-[4-(7H-pyrrolo[2,3-d]pyrimidin-4-yl)-1H-pyrazol-1-yl]azetidin-1-yl}-N-[(1S)-2,2,2-trifluoro-1-methylethyl]pyrazine-2-carboxamide]
< 10 nM	A (A means greater than or equal to 10)	10 to 40 nM	N#CCC1(n2cc(-c3ccnc4[nH]ccc34)cn2)CN(c2cnc(C(=O)NCC(F)(F)F)cn2)C1 [Example 36, 5-{3-(Cyanomethyl)-3-[4-(1H-pyrrolo[2,3-b]pyridin-4-yl)-1H-pyrazol-1-yl]azetidin-1-yl}-N-(2,2,2-trifluoroethyl)pyrazine-2-carboxamide]
